Experimental data as given in ChEMBL document CHEMBL5715954, “Silencing c-Myc translation as a therapeutic strategy through targeting PI3Kδ and CK1ε in hematological malignancies” (Blood, 2017).

What was measured:
Design in all cases: scale not given: the % may be the effect or the level left
[1] = target: Protein-tyrosine kinase 6 (Homo sapiens) (UniProt Q13882); assay: Inhibition of human BRK assessed as enzyme activity at 1 uM using poly[Glu:Tyr] (4:1) as substrate preincubated for 20 mins followed by [gamma-33P]-ATP addition and measured after 120 mins by radiometric Hot-SpotSM Kinase assay relative to control
[2] = target: Mitogen-activated protein kinase 14 (Homo sapiens) (UniProt Q16539); assay: Inhibition of human P38a assessed as enzyme activity at 1 uM using myelin basic protein as substrate preincubated for 20 mins followed by [gamma-33P]-ATP addition and measured after 120 mins by radiometric Hot-SpotSM Kinase assay relative to control
[3] = target: T1, Serine/threonine-protein kinase Sgk3 (Homo sapiens) (UniProt Q96BR1); assay: Inhibition of human SGK3 assessed as enzyme activity at 1 uM using GRPRTSSFAEG as substrate preincubated for 20 mins followed by [gamma-33P]-ATP addition and measured after 120 mins by radiometric Hot-SpotSM Kinase assay relative to control
T1 sequence (whole entry): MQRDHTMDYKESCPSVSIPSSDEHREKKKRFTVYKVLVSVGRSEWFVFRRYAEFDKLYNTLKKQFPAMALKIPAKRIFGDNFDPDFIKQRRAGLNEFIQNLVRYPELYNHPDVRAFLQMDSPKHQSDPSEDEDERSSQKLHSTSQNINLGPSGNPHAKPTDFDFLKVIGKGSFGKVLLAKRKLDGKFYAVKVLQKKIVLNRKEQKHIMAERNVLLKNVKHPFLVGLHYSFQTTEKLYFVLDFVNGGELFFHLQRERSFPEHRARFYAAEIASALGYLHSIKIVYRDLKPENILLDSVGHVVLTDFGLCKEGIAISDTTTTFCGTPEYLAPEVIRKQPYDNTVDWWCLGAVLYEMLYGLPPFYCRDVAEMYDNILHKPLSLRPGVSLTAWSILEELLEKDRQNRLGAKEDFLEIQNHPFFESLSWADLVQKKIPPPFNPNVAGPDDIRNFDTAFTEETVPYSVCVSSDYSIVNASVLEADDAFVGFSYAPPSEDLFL

[4] = target: T2, Serine/threonine-protein kinase ULK2 (Homo sapiens) (UniProt Q8IYT8); assay: Inhibition of human ULK2 assessed as enzyme activity at 1 uM using myelin basic protein as substrate preincubated for 20 mins followed by [gamma-33P]-ATP addition and measured after 120 mins by radiometric Hot-SpotSM Kinase assay relative to control
T2 sequence (whole entry): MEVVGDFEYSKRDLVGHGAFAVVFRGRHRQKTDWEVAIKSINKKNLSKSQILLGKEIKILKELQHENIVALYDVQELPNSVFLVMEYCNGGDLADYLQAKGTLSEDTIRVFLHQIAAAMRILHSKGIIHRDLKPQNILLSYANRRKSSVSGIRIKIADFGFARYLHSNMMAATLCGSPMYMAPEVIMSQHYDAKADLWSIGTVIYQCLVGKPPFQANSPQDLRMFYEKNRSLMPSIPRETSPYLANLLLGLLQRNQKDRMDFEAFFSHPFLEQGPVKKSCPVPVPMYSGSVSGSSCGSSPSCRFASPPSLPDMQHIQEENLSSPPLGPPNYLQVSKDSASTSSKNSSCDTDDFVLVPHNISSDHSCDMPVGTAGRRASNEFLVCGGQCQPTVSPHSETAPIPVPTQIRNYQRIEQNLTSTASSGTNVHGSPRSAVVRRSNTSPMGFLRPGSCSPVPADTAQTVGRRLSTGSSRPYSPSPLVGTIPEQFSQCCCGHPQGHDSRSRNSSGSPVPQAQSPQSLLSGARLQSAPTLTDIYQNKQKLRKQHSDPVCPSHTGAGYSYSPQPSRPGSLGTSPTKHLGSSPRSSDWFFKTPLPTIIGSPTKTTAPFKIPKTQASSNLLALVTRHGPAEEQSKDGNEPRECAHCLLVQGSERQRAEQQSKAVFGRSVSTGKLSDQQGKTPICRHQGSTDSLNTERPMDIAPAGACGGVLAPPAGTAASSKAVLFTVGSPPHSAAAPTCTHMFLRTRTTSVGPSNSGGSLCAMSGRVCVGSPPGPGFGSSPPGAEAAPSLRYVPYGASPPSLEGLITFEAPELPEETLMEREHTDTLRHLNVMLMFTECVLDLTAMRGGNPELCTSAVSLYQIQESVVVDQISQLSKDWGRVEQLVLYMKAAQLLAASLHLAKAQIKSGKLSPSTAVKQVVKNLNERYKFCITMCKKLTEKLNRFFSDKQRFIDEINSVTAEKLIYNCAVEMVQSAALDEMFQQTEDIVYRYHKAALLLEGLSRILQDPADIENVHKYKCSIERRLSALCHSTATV

[5] = target: T3, Serine/threonine-protein kinase A-Raf (Homo sapiens) (UniProt P10398); assay: Inhibition of human ARAF assessed as enzyme activity at 1 uM using MEK1 (K97R) as substrate preincubated for 20 mins followed by [gamma-33P]-ATP addition and measured after 120 mins by radiometric Hot-SpotSM Kinase assay relative to control
T3 sequence (whole entry): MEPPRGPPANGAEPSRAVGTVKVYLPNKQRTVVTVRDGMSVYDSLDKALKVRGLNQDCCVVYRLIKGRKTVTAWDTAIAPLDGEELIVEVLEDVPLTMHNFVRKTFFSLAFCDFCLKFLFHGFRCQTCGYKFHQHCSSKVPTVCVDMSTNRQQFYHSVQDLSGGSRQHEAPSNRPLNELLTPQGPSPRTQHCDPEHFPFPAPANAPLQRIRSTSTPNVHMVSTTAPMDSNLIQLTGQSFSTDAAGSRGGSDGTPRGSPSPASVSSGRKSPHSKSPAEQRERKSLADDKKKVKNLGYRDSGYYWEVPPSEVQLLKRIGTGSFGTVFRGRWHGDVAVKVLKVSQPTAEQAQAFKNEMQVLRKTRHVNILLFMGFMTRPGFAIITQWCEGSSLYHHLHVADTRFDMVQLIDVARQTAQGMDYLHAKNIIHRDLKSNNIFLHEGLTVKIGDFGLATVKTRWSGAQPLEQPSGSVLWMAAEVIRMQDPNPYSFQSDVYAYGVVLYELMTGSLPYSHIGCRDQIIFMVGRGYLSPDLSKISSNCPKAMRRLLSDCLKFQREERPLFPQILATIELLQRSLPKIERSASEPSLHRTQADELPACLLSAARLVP

[6] = target: Cyclin-dependent kinase 14/Cyclin-Y (Homo sapiens) (UniProt O94921+Q8ND76); assay: Inhibition of human CDK14/cyclin Y assessed as enzyme activity at 1 uM using RB Protein as substrate preincubated for 20 mins followed by [gamma-33P]-ATP addition and measured after 120 mins by radiometric Hot-SpotSM Kinase assay relative to control; format: protein-complex assay

Sequence of Protein-tyrosine kinase 6 (Homo sapiens) (Q13882 whole entry, looked up): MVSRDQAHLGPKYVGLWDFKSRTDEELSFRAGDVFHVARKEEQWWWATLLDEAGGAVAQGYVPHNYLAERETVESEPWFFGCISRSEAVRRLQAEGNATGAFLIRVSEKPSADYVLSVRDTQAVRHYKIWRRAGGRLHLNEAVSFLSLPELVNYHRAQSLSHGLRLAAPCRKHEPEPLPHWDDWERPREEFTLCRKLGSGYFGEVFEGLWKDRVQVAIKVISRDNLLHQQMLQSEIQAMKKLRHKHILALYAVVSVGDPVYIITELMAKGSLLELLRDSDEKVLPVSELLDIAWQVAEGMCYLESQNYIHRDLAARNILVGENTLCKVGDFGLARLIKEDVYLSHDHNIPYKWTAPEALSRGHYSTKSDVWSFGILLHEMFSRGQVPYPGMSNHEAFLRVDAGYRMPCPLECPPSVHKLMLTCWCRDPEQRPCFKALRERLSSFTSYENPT
Sequence of Mitogen-activated protein kinase 14 (Homo sapiens) (Q16539 whole entry): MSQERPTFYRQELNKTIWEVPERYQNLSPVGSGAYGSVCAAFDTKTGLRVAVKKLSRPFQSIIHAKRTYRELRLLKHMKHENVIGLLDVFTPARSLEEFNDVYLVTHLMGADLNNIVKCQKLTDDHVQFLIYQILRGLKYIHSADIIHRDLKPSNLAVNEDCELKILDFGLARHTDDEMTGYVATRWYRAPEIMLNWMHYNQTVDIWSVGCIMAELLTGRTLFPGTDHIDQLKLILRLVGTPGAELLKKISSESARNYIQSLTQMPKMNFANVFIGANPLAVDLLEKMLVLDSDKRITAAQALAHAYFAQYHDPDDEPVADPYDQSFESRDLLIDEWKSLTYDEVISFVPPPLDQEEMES

Structure (SMILES) | Activity [1] [%] | Activity [2] [%] | Activity [3] [%] | Activity [4] [%] | Activity [5] [%] | Activity [6] [%]
CC[C@H](Nc1ncnc2[nH]cnc12)c1nc2cccc(F)c2c(=O)n1-c1ccccc1 | 97.6 | 98.8 | 97.2 | 89.3 | 92.3 | 77.4
C[C@H](Nc1ncnc2nc[nH]c12)c1cc2cccc(Cl)c2c(=O)n1-c1ccccc1 | 98.3 | 94.5 | 97.3 | 98.4 | 86.4 | 85.3
CC(C)Oc1ccc(-c2nn([C@@H](C)c3oc4ccc(F)cc4c(=O)c3-c3cccc(F)c3)c3ncnc(N)c23)cc1F [UMBRALISIB] | 97.9 | 96.9 | 98.7 | 101 | 84.4 | 79.3
